# Results taken from publication PMC12794274, “Therapeutic potential of Sheng-Xian-Tang in doxorubicin-induced chronic heart failure by regulation of phenylalanine metabolism disruption” (Chinese Medicine, 2026).
# Where “and” joins values, the source holds several entries; their conditions need not be identical. Equal entries are not always repeated.
# Legend:
# [1] = tested on: heart tissues; assay: Transmission electron microscopy of heart tissue; type: in vivo, rat; details: experiment II; DOX alone, co-treatments vs DOX
# Method: Freshly excised heart tissues were immediately fixed in 2.5% glutaraldehyde at 4 °C overnight. After washing with 0.1 M cacodylate trihydrate buffer, samples were post-fixed with 1% osmium tetroxide for 1 h. Tissues were then dehydrated through a graded ethanol series, incubated in acetone, and embedded in epoxy resin. Ultrathin sections were mounted on copper grids and imaged using a Hitachi HT7800 transmission electron microscope (Tokyo, Japan).
# [2] = tested on: urinary metabolites of DOX-induced CHF rats; assay: Urine metabolomics (UHPLC-Q-TOF/MS); type: in vivo, rat
# Method: Urine samples (200 μL) were mixed with 200 μL of protein precipitant (methanol: acetonitrile, 1:1) and vortexed for 30 s at 4 °C. Samples were sonicated for 10 min in an ice bath, then incubated at – 20 °C for 1 h. After centrifugation at 13,000 rpm for 15 min at 4 °C, 200 μL of supernatant was transferred to sample vials for analysis. A pooled quality control (QC) sample was prepared by combining 10 μL of supernatant from each sample. Sample analysis was performed using a Waters H-Class UPLC system coupled to a Triple TOF 6600 mass spectrometer (AB SCIEX, USA). Chromatographic separation was achieved on an ACQUITY UPLC HSS T3 column (2.1 × 100 mm, 1.7 μm; Waters) using 0.1% formic acid in water (mobile phase A) and acetonitrile (mobile phase B). […] Mass spectrometry was performed in both positive and negative ionization modes. Key parameters included: ion spray voltage, 5500/− 4500 V; m/z range, 60–1000; gas 1 and 2, 60 psi; curtain gas, 35 psi; accumulation time, 1.2 s; source temperature, 550 °C; declustering potential, 60 V. Information-dependent acquisition (IDA) was used with the following settings: m/z range, 50–1000; accumulation time, 0.05 s; collision energy, 40 ± 20 V. Data processing was performed using XC-MS plus software for peak alignment, extraction, and normalization. Metabolite identification was carried out using the MetDNA database. Multivariate statistical analysis, including principal component analysis (PCA) and orthogonal partial least squares discriminant analysis (OPLS-DA), was conducted using MetaboAnalyst 5.0. Differential metabolites were identified based on variable importance in projection (VIP) scores > 1.0 and P < 0.05. Fold change (FC) values were used to determine up- or down-regulation. Metabolic pathway analysis was performed using MetaboAnalyst 5.0, with significance set at P < 0.05.
# [3] = tested on: DOX-induced chronic heart failure (CHF) rat model; assay: Echocardiography (LVEF%, LVFS%) in DOX-induced CHF rats; type: in vivo; details: DOX group, cumulative 15 mg/kg, day 39
# Method: Experiment I, 48 rats were randomly divided into six groups: (1) the CON group; (2) the DOX group; (3) the DOX + enalapril (ENP, positive control, 1.8 mg/kg) group; (4) the DOX + SXT at low dose group (4 g/kg); (5) the DOX + SXT at middle dose group (8 g/kg); and […] the DOX + SXT at high dose group (16 g/kg). Except those rats in the CON group, the remaining rats received DOX at a 2.5 mg/kg per injection to a cumulative dose of 15 mg/kg. The dose of SXT for the low-dose group was set at 4 g/kg, based on the minimum human clinical daily dose (48.5 g, Table S2) converted to an equivalent rat dose using body surface area normalization (48.5 g/70 kg × 6.3 ≈ 4.4 g/kg, rounded to 4 g/kg). To evaluate a clear dose–response relationship, the medium and high doses were established at 8 g/kg and 16 g/kg, respectively, corresponding to 2 fold and 4 fold the low dose. This gradient dosing strategy is consistent with the Technical Guidelines for Pharmacodynamic Studies of Traditional Chinese Medicine and the Technical Guidelines for General Pharmacology Studies of Traditional Chinese Medicine and Natural Drugs, and is further supported by our previous study on the effective dose range of SXT in a rat model of doxorubicin-induced chronic heart failure. Heart function was monitored by echocardiography analysis at day 39, and the CHF model was considered to be successfully established when the left ventricular ejection fraction (LVEF%) values were reduced to 50%. Urinary samples were collected at five time points (0, 10, 20, 30, and 39 d), while fecal samples were collected before the rats were euthanized. Subsequently, the rats were anesthetized, and blood samples and heart and liver tissues were collected. All bio-samples were stored at − 80 °C until analysis.
# Experiment II was conducted to specifically confirm the exacerbated cardiac abnormality of phenylalanine in the DOX-induced CHF rats. […] Heart function was detected as in the experiment I.
# Echocardiographic (ECG) measurements were performed using M-mode tracings and continuous Doppler with a Vevo 2100 system (Visual Sonics, Toronto, ON, Canada). Rats were anesthetized with isoflurane prior to imaging. Cardiac function indices including left ventricular ejection fraction (LVEF%) and left ventricular fractional shortening (LVFS%) were measured and recorded.
# [4] = tested on: AML12 cells; assay: AML12 cell viability (CCK8); type: cell-based
# Method: Mouse hepatocellular cell lines (AML12), purchased from the Shanghai Cell Bank of Chinese Academy of Sciences (Shanghai, China), were cultured in Dulbecco’s Modified Eagle Medium (DMEM) supplemented with 10% fetal bovine serum (FBS) and 2 mM L-glutamine and 1% pyruvate and maintained at 37 °C in a […], 5% CO2 incubator. Cells were seeded at a density of 5 × 10^5 cells/well in 6-well plates. […] Cells’ survival rate was detected by Cell Counting Kit-8 (CCK8) Reagents (Thermo Scientific, Singapore).
# [5] = tested on: gut microbiota; assay: 16S rRNA sequencing of gut microbiota; type: in vivo, rat; details: DOX group vs CON group
# Method: 16S rRNA sequencing and bioinformatics analysis were performed by OEbiotech Co. Ltd. (Shanghai, China). Total genomic DNA was extracted from cecal contents. The V3–V4 hypervariable region of the 16S rRNA gene was amplified using primers 343F and 798R. Clean reads were processed to remove primer sequences and clustered into operational taxonomic units (OTUs) at 97% similarity using Vsearch software. OTUs were annotated by comparison against the […]. Alpha diversity was assessed using the Simpson index. Beta diversity was evaluated using Bray–Curtis distances and visualized by principal coordinates analysis (PCoA). Differential abundance analysis of gut microbiota associated with DOX-induced CHF was performed using linear discriminant analysis effect size (LEfSe) and random forest algorithms.
compound,measurement,setting,value
"COc1cccc2c1C(=O)c1c(O)c3c(c(O)c1C2=O)C[C@@](O)(C(=O)CO)C[C@@H]3O[C@H]1C[C@H](N)[C@H](O)[C@H](C)O1 [DOX, Doxorubicin]",mitochondrial ultrastructure of heart (electron microscopy),[1],"mitochondrial shrinkage, increased membrane density, and marked reduction and shortening of cristae with focal vacuolization"
same,"urinary levels of 4-(2-aminophenyl)-2,4-dioxobutanoate, hippurate, phenylacetylglycine, 5-methoxyindoleacetate, phenylpyruvate, and phenylalanine",[2]; DOX group vs CON group,significantly increased
same,"urinary levels of indole-3-acetaldehyde, urea, anthranilate, indoleacetic acid, tryptamine, N-acetyl-L-glutamate, tyrosine, and glutamate",[2]; DOX group vs CON group,significantly decreased
same,urinary phenylalanine level,"[2]; day 10 after DOX administration, P < 0.001",sharp increase
same,LVFS,[3],< 30% and 25.62%
same,cell viability,[4],significant reduction
same,IC50,"[4]; Mus musculus, AML12, read-out: DOX concentration that caused 50% cell death (IC50)",1 µM
same,Muribaculaceae abundance,[5],decreased
same,relative abundance of Proteobacteria,[5]; p < 0.01,significantly increased
